The target of one experiment is T1, human DHODH (Homo sapiens, UniProt Q02127).
T1 construct: purchased Proteros PR-0044
Put plainly: DHODH enzymatic assay (DCIP absorbance, end-point). Format: biochemical. The conditions noted are these: purified human DHODH, DCIP as final electron acceptor, end-point mode; read-out: hDHODH IC50. The protocol:
In vitro Assay: DHODH enzymatic assay
To detect DHODH enzyme activities, dichloroindophenol (DCIP) is added as the final electron acceptor in the assay. DCIP can accept electrons from the reduced coenzyme Q generated in the assay, or from dihydroorotate (DHO) via FMN by binding presumably to the ubiquinone pocket. […] The assay buffer contained […], pH 7.5, 150 mM NaCl, 0.5 mM EDTA, and 0.1% Triton X-100 in MilliQ water. Substrate consisting of 20 mM DHO, 5 mM CoQ6, and 1 mM DCIP in assay buffer, initiates the reaction. […] Absorbance measurements were obtained using the BMG Phera Star plate-reading spectrophotometer. Purified human DHODH was purchased from Proteros (cat. No. PR-0044). Chemicals were purchased from Sigma-Aldrich, Teknova, and Avanti Polar Lipids. Liquid handling was performed using Labcyte Echo and Formulatrix Tempest.

A further experiment deals with MOLM-13 cells. The experiment in a line: MOLM-13 cellular assay (CellTiter-Glo cell viability). Format: cell-based. The conditions noted are these: 72 hours exposure, cell viability by CellTiter-Glo. The protocol:
In Vitro Assay: MOLM-13 Cellular Assay
MOLM-13 cells were obtained from DSMZ and were maintained in RPMI 1640+Glutamax+25 mM HEPES (Invitrogen, catalog number 72400) supplemented with 10% heat inactivated fetal bovine serum (FBS; Invitrogen, catalog number 16140). The day prior to assay set-up, cells were pelleted, resuspended in fresh media, counted, and cells were plated at 0.4×10^6 cell/mL in a T150 flask. On the day of the assay, cells were pelleted, resuspend in fresh media, counted and seeded at 5,000 cells/well in white opaque 96-well tissue culture treated microplates (Perkin Elmer, catalog number 6005680). Cells were exposed to different concentrations of test compounds at 37° C., 5% CO2 for 72 hours immediately after seeding. Cell viability was acquired on a Perkin Elmer Envision 2104 multilabel reader using the CellTiter-Glo assay (Promega) according to the manufacturer's instructions.
(In general: In ATP-based viability assays light output follows the ATP content of the culture.)

T1 sequence (Q02127 whole entry): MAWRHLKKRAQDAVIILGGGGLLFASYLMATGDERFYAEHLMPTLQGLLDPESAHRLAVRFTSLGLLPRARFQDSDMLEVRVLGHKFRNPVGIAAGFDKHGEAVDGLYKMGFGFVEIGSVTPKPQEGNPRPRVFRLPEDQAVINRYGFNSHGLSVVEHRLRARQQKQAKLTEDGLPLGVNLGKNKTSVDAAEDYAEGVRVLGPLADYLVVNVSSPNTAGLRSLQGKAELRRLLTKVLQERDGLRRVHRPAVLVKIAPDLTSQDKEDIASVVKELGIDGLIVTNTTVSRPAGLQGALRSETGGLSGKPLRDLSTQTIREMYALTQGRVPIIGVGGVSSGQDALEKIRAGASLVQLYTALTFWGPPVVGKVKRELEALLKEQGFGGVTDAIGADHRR

By IC50 is commonly meant the concentration at which inhibition is half-maximal. `C=C(C)C1CN(c2cc(C)ccc2F)C(=O)c2cc(F)c(-n3nc(CO)n(CC)c3=O)cc21` (single isomer, unassigned) [Example 39, (S *)-6-(4-Ethyl-3-(hydroxymethyl)-5-oxo-4,5-dihydro-1H-1,2,4-triazol-1-yl)-7-fluoro-2-(2-fluoro-5-methylphenyl)-4-(prop-1-en-2-yl)-3,4-dihydroisoquinolin-1(2H)-one]: the results for the IC50 on human DHODH and in the experiment on MOLM-13 cells were 20 nM and 14.1 nM, respectively.
As to `C=C(C)C1CN(c2cc(C)ccc2F)C(=O)c2cc(F)c(-n3nc(CO)n(CC)c3=O)cc21` (racemic) [Example 38, Racemic-6-(4-ethyl-3-(hydroxymethyl)-5-oxo-4,5-dihydro-1H-1,2,4-triazol-1-yl)-7-fluoro-2-(2-fluoro-5-methylphenyl)-4-(prop-1-en-2-yl)-3,4-dihydroisoquinolin-1(2H)-one], the IC50 at human DHODH stood at 30 nM; in the experiment on MOLM-13 cells (Homo sapiens, MOLM-13, 72 h), 36.3 nM.
For the compound `CCn1c(CO)nn(-c2cc3c(cc2F)C(=O)N(c2c(C)cnc(OC)c2Cl)CN3C(C)C)c1=O` [Example 32, 3-(3-Chloro-2-methoxy-5-methylpyridin-4-yl)-7-(4-ethyl-3-(hydroxymethyl)-5-oxo-4,5-dihydro-1H-1,2,4-triazol-1-yl)-6-fluoro-1-isopropyl-2,3-dihydroquinazolin-4(1H)-one], the IC50 at human DHODH was 9 nM; in the experiment with MOLM-13 cells (Homo sapiens, MOLM-13, 72 h) it was 5.96 nM.
In the same order, the values of `C=C(C1CN(c2c(F)cccc2Cl)C(=O)c2ccc(-n3nc(CO)n(CC)c3=O)cc21)C(F)(F)F` (racemic) [Example 73, Racemic 2-(2-Chloro-6-fluorophenyl)-6-(4-ethyl-3-(hydroxymethyl)-5-oxo-4,5-dihydro-1H-1,2,4-triazol-1-yl)-4-(3,3,3-trifluoroprop-1-en-2-yl)-3,4-dihydroisoquinolin-1(2H)-one] are 8 nM and 12.2 nM.
For `CCn1c(CO)nn(-c2nc3c(cc2F)C(=O)N(c2c(F)cccc2Cl)CN3[C@@H](C)C(F)(F)F)c1=O` [Example 8, (S)-3-(2-Chloro-6-fluorophenyl)-7-(4-ethyl-3-(hydroxymethyl)-5-oxo-4,5-dihydro-1H-1,2,4-triazol-1-yl)-6-fluoro-1-(1,1,1-trifluoropropan-2-yl)-2,3-dihydropyrido[2,3-d]pyrimidin-4(1H)-one], the IC50 at human DHODH is < 0.5 nM; in the experiment with MOLM-13 cells (Homo sapiens, MOLM-13, 72 h), 1.7 nM.
In the case of `C=C(C)[C@H]1CN(c2c(C)cnc(OC)c2Cl)C(=O)c2cc(F)c(-n3nc(CO)n(CC)c3=O)cc21` (single isomer, unassigned; atropisomer 1) [Example 63, Atropisomer 1, (R *)-2-(3-Chloro-2-methoxy-5-methylpyridin-4-yl)-6-(4-ethyl-3-(hydroxymethyl)-5-oxo-4,5-dihydro-1H-1,2,4-triazol-1-yl)-7-fluoro-4-(prop-1-en-2-yl)-3,4-dihydroisoquinolin-1(2H)-one], the IC50 at human DHODH was > 100 nM; with MOLM-13 cells it was 359 nM.
As for `CCn1c(CO)nn(-c2ccc3c(c2)C(C(C)C)CN(c2ccccc2F)C3=O)c1=O` (racemic) [Example 12, Racemic-6-(4-Ethyl-3-(hydroxymethyl)-5-oxo-4,5-dihydro-1H-1,2,4-triazol-1-yl)-2-(2-fluorophenyl)-4-isopropyl-3,4-dihydroisoquinolin-1(2H)-one], the half-maximal inhibitory concentration (IC50) at human DHODH was 140 nM; with MOLM-13 cells (Homo sapiens, MOLM-13, 72 h) it was 58 nM.
Turning to `CCn1c(CO)nn(-c2cc3c(cc2F)C(=O)N(c2c(F)cccc2Cl)CN3[C@@H](C)C2CCCCC2)c1=O` [Example 17, (S)-3-(2-Chloro-6-fluorophenyl)-1-(1-cyclohexylethyl)-7-(4-ethyl-3-(hydroxymethyl)-5-oxo-4,5-dihydro-1H-1,2,4-triazol-1-yl)-6-fluoro-2,3-dihydroquinazolin-4(1H)-one], the IC50 at human DHODH is 0.1 nM; in the experiment with MOLM-13 cells (Homo sapiens, MOLM-13, 72 h), < 1.69 nM.
The matching figures for `CCn1c(CO)nn(-c2cc3c(cc2F)C(=O)N(c2c(F)cccc2Cl)CN3C2CCC2)c1=O` [Example 19, 3-(2-Chloro-6-fluorophenyl)-1-cyclobutyl-7-(4-ethyl-3-(hydroxymethyl)-5-oxo-4,5-dihydro-1H-1,2,4-triazol-1-yl)-6-fluoro-2,3-dihydroquinazolin-4(1H)-one]: 3 nM and 2.57 nM.
For `CCC[C@H](C)N1CN(c2c(F)cccc2Cl)C(=O)c2cc(F)c(-n3nc(CO)n(CC)c3=O)nc21` [Example 24, (S)-3-(2-Chloro-6-fluorophenyl)-7-(4-ethyl-3-(hydroxymethyl)-5-oxo-4,5-dihydro-1H-1,2,4-triazol-1-yl)-6-fluoro-1-(pentan-2-yl)-2,3-dihydropyrido[2,3-d]pyrimidin-4(1H)-one], the IC50 at human DHODH is 0.4 nM; in the experiment on MOLM-13 cells (Homo sapiens, MOLM-13, 72 h), < 1.69 nM.
In the same order, the values of `CCn1c(CO)nn(-c2cc3c(cc2F)C(=O)N(c2c(F)cncc2Cl)CN3C(C)C)c1=O` [Example 29, 3-(3-Chloro-5-fluoropyridin-4-yl)-7-(4-ethyl-3-(hydroxymethyl)-5-oxo-4,5-dihydro-1H-1,2,4-triazol-1-yl)-6-fluoro-1-isopropyl-2,3-dihydroquinazolin-4(1H)-one] are 20 nM and 27.3 nM.
Take `CCn1c(CO)nn(-c2cc3c(cc2F)C(=O)N(c2c(F)cccc2Cl)C(C)(C)N3C(C)C)c1=O` [Example 3, 3-(2-Chloro-6-fluorophenyl)-7-(4-ethyl-3-(hydroxymethyl)-5-oxo-4,5-dihydro-1H-1,2,4-triazol-1-yl)-6-fluoro-1-isopropyl-2,2-dimethyl-2,3-dihydroquinazolin-4 (1H)-one]: the concentration for half-maximal inhibition (IC50) at human DHODH was found to be 1040 nM; in the experiment with MOLM-13 cells (Homo sapiens, MOLM-13, 72 h) it was 440 nM.
On to `C=C(C)C1CN(c2cc(C)ccc2F)C(=O)c2cc(F)c(-n3nc(CO)n(CC)c3=O)cc21` (single isomer, unassigned) [Example 40, (R *)-6-(4-Ethyl-3-(hydroxymethyl)-5-oxo-4,5-dihydro-1H-1,2,4-triazol-1-yl)-7-fluoro-2-(2-fluoro-5-methylphenyl)-4-(prop-1-en-2-yl)-3,4-dihydroisoquinolin-1(2H)-one], for which the IC50 at human DHODH turned out to be 40 nM; with MOLM-13 cells, 52.9 nM.
On to `CCn1c(CO)nn(-c2cc3c(cc2F)C(=O)N(c2c(F)cccc2Cl)CN3CC2CCCCC2)c1=O` [Example 21, 3-(2-Chloro-6-fluorophenyl)-1-(cyclohexylmethyl)-7-(4-ethyl-3-(hydroxymethyl)-5-oxo-4,5-dihydro-1H-1,2,4-triazol-1-yl)-6-fluoro-2,3-dihydroquinazolin-4(1H)-one], for which the IC50 at human DHODH came out at 6 nM; in the experiment on MOLM-13 cells (Homo sapiens, MOLM-13, 72 h) it was 22.9 nM.
The matching figures for `CCn1c(CO)nn(-c2nc3c(cc2F)C(=O)N(c2c(F)cccc2Cl)CN3C2CCC2)c1=O` [Example 7, 3-(2-chloro-6-fluorophenyl)-1-cyclobutyl-7-(4-ethyl-3-(hydroxymethyl)-5-oxo-4,5-dihydro-1H-1,2,4-triazol-1-yl)-6-fluoro-2,3-dihydropyrido[2,3-d]pyrimidin-4(1H)-one]: 2.6 nM and 1.7 nM.
In the case of `CCn1c(CO)nn(-c2cc3c(cc2F)C(=O)N(c2c(F)cccc2Cl)CN3CC(C)C)c1=O` [Example 18, 3-(2-Chloro-6-fluorophenyl)-7-(4-ethyl-3-(hydroxymethyl)-5-oxo-4,5-dihydro-1H-1,2,4-triazol-1-yl)-6-fluoro-1-isobutyl-2,3-dihydroquinazolin-4(1H)-one], the IC50 at human DHODH amounted to 2 nM; with MOLM-13 cells (Homo sapiens, MOLM-13, 72 h), 3.99 nM.
Turning to `C=C(C)C1CN(c2c(F)cccc2Cl)C(=O)c2ccc(-n3nc(CO)n(CC)c3=O)cc21` (racemic) [Example 11, Racemic-2-(2-Chloro-6-fluorophenyl)-6-(4-ethyl-3-(hydroxymethyl)-5-oxo-4,5-dihydro-1H-1,2,4-triazol-1-yl)-4-(prop-1-en-2-yl)-3,4-dihydroisoquinolin-1(2H)-one], the IC50 at human DHODH is 1.7 nM; in the experiment on MOLM-13 cells (Homo sapiens, MOLM-13, 72 h), 1 nM.
Turning to `CCn1c(CO)nn(-c2cc3c(cc2F)C(=O)N(c2c(C)cnc(OC)c2Cl)CC3C(C)C)c1=O` (single isomer, unassigned) [Example 66, (S*)-2-(3-Chloro-2-methoxy-5-methylpyridin-4-yl)-6-(4-ethyl-3-(hydroxymethyl)-5-oxo-4,5-dihydro-1H-1,2,4-triazol-1-yl)-7-fluoro-4-isopropyl-3,4-dihydroisoquinolin-1(2H)-one], the IC50 on human DHODH is 2 nM; in the experiment on MOLM-13 cells, 2.96 nM.
For `CCn1c(CO)nn(-c2ccc3c(c2)C(C(C)C)CN(c2cccc(F)c2)C3=O)c1=O` (racemic) [Example 10, Racemic-6-(4-Ethyl-3-(hydroxymethyl)-5-oxo-4,5-dihydro-1H-1,2,4-triazol-1-yl)-2-(3-fluorophenyl)-4-isopropyl-3,4-dihydroisoquinolin-1(2H)-one], the IC50 at human DHODH is 190 nM; with MOLM-13 cells (Homo sapiens, MOLM-13, 72 h), > 3 nM.

These data come from patent publication US20220081422A1 (Janssen Biotech, Inc., priority 2019, published 2022).
